The nature of test [1]: Ratio of kinact to that of KI.
The target of test [2] is 4-aminobutyrate aminotransferase, mitochondrial (Homo sapiens) (UniProt P80404). Description: Time dependent inactivation of Gamma-amino-N-butyrate transaminase. The note with it: Cavia porcellus.

Each structure is given as a SMILES string.

Sequence of 4-aminobutyrate aminotransferase, mitochondrial (Homo sapiens) (P80404 whole entry): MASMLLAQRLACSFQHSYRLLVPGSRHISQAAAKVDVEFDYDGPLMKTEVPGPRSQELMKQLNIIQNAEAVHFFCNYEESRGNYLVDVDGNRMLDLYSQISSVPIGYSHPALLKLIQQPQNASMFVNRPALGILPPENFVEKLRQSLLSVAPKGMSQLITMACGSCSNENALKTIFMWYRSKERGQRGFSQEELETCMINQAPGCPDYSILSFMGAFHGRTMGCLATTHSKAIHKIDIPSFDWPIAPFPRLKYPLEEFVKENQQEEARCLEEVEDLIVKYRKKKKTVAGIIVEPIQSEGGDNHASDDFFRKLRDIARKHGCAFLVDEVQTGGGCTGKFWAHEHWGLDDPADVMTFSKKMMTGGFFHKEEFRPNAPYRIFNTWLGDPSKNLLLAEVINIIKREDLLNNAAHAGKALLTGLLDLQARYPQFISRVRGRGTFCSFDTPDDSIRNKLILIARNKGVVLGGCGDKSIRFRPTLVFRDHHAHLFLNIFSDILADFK

With `N[C@@H]1C=CC[C@H](C(=O)O)C1`, in test [1], the Ratio is 0.0042. The molecule also had a K inact in test [2] of 0.01 min⁻¹.

For the molecule `N[C@@H]1C=CCC[C@@H]1C(=O)O`, in test [1], the Ratio amounted to 0.0024. Further, the K inact in test [2] was determined as 0.03 min⁻¹.

Values taken from ChEMBL document CHEMBL1135615.
